Laboratory results: patent US10189809B2, “SGC stimulators” (Ironwood Pharmaceuticals, Inc., priority 2010, dated 2019)
Read-outs that look alike come from different tables or passages of the source.

Tests used:
[1] = target: T1, soluble guanylate cyclase (sGC) (Homo sapiens (Human), UniProt Q02108+Q02153); assay: sGC-HEK-cGMP assay run with SNP incubation (HEK WC assay); type: cell-based; details: for Emax at 10 µM: read-out: HEK WC Assay (% Emax at 10 uM/with 10 uM SNP); for Emax at 30 µM: read-out: HEK WC Assay (% Emax at 30 uM/with 10 uM SNP); for HEK WC Assay (fold increase at 30 μM in the presence of 10 μM SNP): compound at 30 μM; for EC50: in the presence of 10 uM SNP
Procedure, shortened: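 EC50 values derive from concentration-response curves of intracellular cGMP in HEK293 cells, which express sGC endogenously. Compound and sodium nitroprusside were co-incubated 10 min at 37 °C after a 15-min 0.5 mM IBMX step, with 0.1 M HCl lysis and 1% DMSO vehicle.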

[2] = target: T2, Human soluble guanylate cyclase enzyme (hsGC) (Homo sapiens (Human), UniProt Q02108+Q02153); assay: Purified human sGC enzyme activity assay; type: biochemical; details: for sGC Enzyme (specific activity at 10 μM) / sGC Enzyme (fold increase at 10 μM without SNP): 10 μM compound; for sGC Enzyme (specific activity at 30 μM) / sGC Enzyme (fold increase at 30 μM without SNP) / sGC Enzyme (fold increase at 30 μM): 30 μM compound; for sGC Enzyme (fold increase at 30 μM): without the addition of SNP
Procedure, shortened: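 Values are fold-change of sGC specific activity, nmoles cGMP per mg enzyme per min, relative to DMSO controls. Reactions: 5 ng human enzyme, 300 μM GTP, 1 mM IBMX, 2 mM MgCl2/DTT, 0.1 M Tris pH 8.0, compound 10 or 30 μM final, 37° C for 30 minutes, methanol quench. cGMP read against a 0.078-10 μM final standard curve.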

[3] = target: T2, Human soluble guanylate cyclase enzyme (hsGC); assay: Purified human sGC enzyme synergy assay in the presence of 1 μM sodium nitroprusside (SNP); type: biochemical; details: for sGC Enzyme (fold increase at 10 μM with SNP): 10 μM compound; for sGC Enzyme (fold increase at 30 μM with SNP): 30 μM compound
Description: Human soluble guanylate cyclase enzyme (hsGC) obtained from Enzo Inc. (P/N: ALX-201-177) was used to evaluate the activity of test compounds. The assay reactions contained 0.1 M Tris (pH 8.0), 0.5 mg/mL BSA (pH 8.0), 2 mM DTT, 2 mM MgCl2, 300 μM GTP, 1 mM 3-isobutyl-1-methylxanthine (IBMX) and 5 ng human soluble guanylate cyclase enzyme. Test compounds in DMSO were then added (2 μL, 10 or 30 μM final concentration) and incubated (200 μL, 96-well plate format) at 37° C. for 30 minutes. The controls were carried out using 2 μL DMSO. After the 30 minute incubation, the reaction was stopped with the addition of 200 μL of cold methanol. The plate was then centrifuged at 3,200 rpm for 10 minutes at room temperature. Supernatants (200 μL) were collected and transferred to a new 96 well plate for analysis.
An 8 point cGMP (Sigma-Aldrich P/N: G6129) standard curve was prepared in assay buffer ranging from 0.156-20 μM. Samples for the cGMP standard curve were then diluted with an equal volume of methanol resulting in final cGMP concentrations of 0.078-10 μM.
The cGMP standard curve was generated using GraphPad Prism Software.
Calculations: Specific Activity was determined by the amount of cGMP formed (nmoles) per mg of sGC per min. Enzyme “fold-change” was calculated by dividing Specific Activity for test compounds by Specific Activity of DMSO controls.
Enzyme assays were performed as described above, but was done in the presence of 1 μM sodium nitroprusside (SNP).

[4] = target: T1, soluble guanylate cyclase (sGC); assay: sGC-HEK-cGMP assay run in the absence of SNP (HEK WC assay); type: cell-based; details: compound at 30 μM, absence of SNP
Procedure, shortened: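 Intracellular cGMP was measured by LC/MS, using a standard curve, in HEK293 cells treated with compound for 10 min at 37° C after a 15 min 0.5 mM IBMX pretreatment, with no SNP present. Lysis and quench used 0.1 M HCl. EC50 values came from concentration-response fits.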

Thoracic aortic rings = assay: Alternative thoracic aortic rings assay (Example 19b; resting tension as 100% inhibition); set-up: species or system rat; details: Rattus norvegicus, Table 10B; for inhibition at 1 µM: read-out: Percent Relaxation at 1 μM; for inhibition at 3 µM: read-out: Percent Relaxation at 3 μM; for inhibition at 10 µM: read-out: Percent Relaxation at 10 μM; for EC50: read-out: Aortic Ring EC50
Procedure, shortened: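 EC50 values come from cumulative concentration-response relaxation of phenylephrine (100 ng/mL)-contracted thoracic aortic rings from 275-299 g male Sprague-Dawley rats. Rings were equilibrated at 1.0 g tension in oxygenated Krebs-Henseleit at 37 °C, with compounds given in DMSO and tension measured isometrically.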

[5] = read-out: HEK WC Assay (% Emax at 10 μM with 10 uM SNP)
[6] = read-out: HEK WC Assay (% Emax at 30 μM with 10 uM SNP)

T1 sequence (Q02153 whole entry): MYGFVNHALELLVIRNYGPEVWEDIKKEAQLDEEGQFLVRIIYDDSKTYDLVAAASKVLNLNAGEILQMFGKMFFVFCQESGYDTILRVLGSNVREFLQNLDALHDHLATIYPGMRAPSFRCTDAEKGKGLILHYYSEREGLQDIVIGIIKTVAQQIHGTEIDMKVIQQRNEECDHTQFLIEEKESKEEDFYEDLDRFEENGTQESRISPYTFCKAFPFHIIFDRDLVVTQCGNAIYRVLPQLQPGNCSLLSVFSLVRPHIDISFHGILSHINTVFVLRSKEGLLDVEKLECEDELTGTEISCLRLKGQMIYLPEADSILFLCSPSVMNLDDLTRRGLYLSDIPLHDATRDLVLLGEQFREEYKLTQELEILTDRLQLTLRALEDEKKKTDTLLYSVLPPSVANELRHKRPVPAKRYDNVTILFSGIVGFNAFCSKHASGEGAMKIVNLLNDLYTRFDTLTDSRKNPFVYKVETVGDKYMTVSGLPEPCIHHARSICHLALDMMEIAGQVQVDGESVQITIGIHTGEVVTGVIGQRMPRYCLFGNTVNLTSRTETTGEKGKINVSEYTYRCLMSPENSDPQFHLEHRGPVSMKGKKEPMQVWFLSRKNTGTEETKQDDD
T1 sequence (Q02108 whole entry): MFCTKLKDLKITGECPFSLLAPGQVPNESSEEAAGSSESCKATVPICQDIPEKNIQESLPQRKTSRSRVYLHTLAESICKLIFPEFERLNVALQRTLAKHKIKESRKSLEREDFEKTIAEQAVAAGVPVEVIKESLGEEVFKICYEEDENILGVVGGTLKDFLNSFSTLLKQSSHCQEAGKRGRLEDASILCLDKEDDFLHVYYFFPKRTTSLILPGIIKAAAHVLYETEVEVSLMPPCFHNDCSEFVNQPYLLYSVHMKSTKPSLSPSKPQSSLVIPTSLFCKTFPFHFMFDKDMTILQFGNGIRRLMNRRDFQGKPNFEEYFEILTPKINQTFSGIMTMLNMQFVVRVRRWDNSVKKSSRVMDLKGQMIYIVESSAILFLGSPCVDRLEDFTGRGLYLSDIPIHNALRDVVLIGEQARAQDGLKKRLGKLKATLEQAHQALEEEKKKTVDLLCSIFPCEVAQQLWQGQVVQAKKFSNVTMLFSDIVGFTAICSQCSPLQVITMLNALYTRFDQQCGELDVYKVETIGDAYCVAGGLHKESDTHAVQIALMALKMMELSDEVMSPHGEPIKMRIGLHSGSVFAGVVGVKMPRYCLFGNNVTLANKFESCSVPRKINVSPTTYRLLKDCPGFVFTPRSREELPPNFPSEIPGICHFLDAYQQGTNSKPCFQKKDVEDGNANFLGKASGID
T2 sequence (Q02153 whole entry): as the sequence (Q02153 whole entry) above
T2 sequence (Q02108 whole entry): as the sequence (Q02108 whole entry) above

Compound | Emax at 10 µM [1] | Emax at 30 µM [1] | sGC Enzyme (specific activity at 10 μM) [2] | sGC Enzyme (fold increase at 10 μM without SNP) [2] | sGC Enzyme (specific activity at 30 μM) [2] | sGC Enzyme (fold increase at 30 μM without SNP) [2] | sGC Enzyme (fold increase at 10 μM with SNP) ([3]; with 1 μM SNP) | sGC Enzyme (fold increase at 30 μM with SNP) ([3]; with 1 μM SNP) | other results
Fc1ccccc1Cn1nc(-c2ccccn2)c(Br)c1C1CCC1 [Compound I-64] | 0 to 10% | 0 to 10% | A (A = 0 to <50) | A (A = no increase to <2 fold increase) | B (B = 50 to <100) | A (A = no increase to <2 fold increase) | A (A = no increase to <2 fold increase) | B (B = 2 to <5 fold increase) | 
COc1ccccc1-c1cc(-c2ccccn2)nn1Cc1ccccc1F [Compound I-36] |  |  | C (C = 100 to <200) | A (A = no increase to <2 fold increase) | C (C = 100 to <200) | A (A = no increase to <2 fold increase) | A (A = no increase to <2 fold increase) | A (A = no increase to <2 fold increase) | 
Fc1ccccc1Cn1nc(-c2ncccn2)cc1-c1ncccn1 [Compound I-13] | 0 to 10% | 0 to 10% | B (B = 50 to <100) | A (A = no increase to <2 fold increase) | C (C = 100 to <200) | A (A = no increase to <2 fold increase) | A (A = no increase to <2 fold increase) | A (A = no increase to <2 fold increase) | 
Fc1ccccc1Cn1nc(-c2ccccn2)cc1-c1cccs1 [Compound I-35] | 10 to 20% | 10 to 20% | D (D = 200 to <500) | B (B = 2 to <5 fold increase) | D (D = 200 to <500) | B (B = 2 to <5 fold increase) | B (B = 2 to <5 fold increase) | C (C = 5 to <10 fold increase) | 
Fc1ccccc1Cn1nc(-c2ncccn2)cc1-c1ccccc1F [Compound I-59] | 0 to 10% | 0 to 10% | B (B = 50 to <100) | B (B = 2 to <5 fold increase) | C (C = 100 to <200) | B (B = 2 to <5 fold increase) | B (B = 2 to <5 fold increase) | C (C = 5 to <10 fold increase) | 
Fc1ccccc1Cn1nc(-c2ccccn2)c(Br)c1-c1ccccn1 [Compound I-62] | 0 to 10% | 0 to 10% | B (B = 50 to <100) | A (A = no increase to <2 fold increase) | B (B = 50 to <100) | A (A = no increase to <2 fold increase) | A (A = no increase to <2 fold increase) | A (A = no increase to <2 fold increase) | 
COc1cccc(-c2cc(-c3ccccn3)nn2Cc2ccccc2F)c1 [Compound I-38] |  |  | C (C = 100 to <200) | A (A = no increase to <2 fold increase) | C (C = 100 to <200) | A (A = no increase to <2 fold increase) | A (A = no increase to <2 fold increase) | A (A = no increase to <2 fold increase) | 
Fc1ccccc1Cn1nc(-c2ccccn2)cc1-c1csc2ccccc12 [Compound I-18] |  |  | C (C = 100 to <200) | A (A = no increase to <2 fold increase) | C (C = 100 to <200) | A (A = no increase to <2 fold increase) | A (A = no increase to <2 fold increase) | A (A = no increase to <2 fold increase) | 
Nc1nc(-c2cc(-c3ccon3)n(Cc3ccccc3F)n2)ncc1N1CCOCC1 [Compound I-139] |  |  |  |  |  |  |  |  | sGC Enzyme (fold increase at 30 μM) [2]: C (C = 5 to <10 fold increase); sGC Enzyme (fold increase at 30 μM with SNP) ([3]; with the addition of SNP): C (C = 5 to <10 fold increase)
N#Cc1cnc(-c2cc(-c3ccon3)n(Cc3ccccc3F)n2)nc1N [Compound I-130] |  |  |  |  |  |  |  |  | sGC Enzyme (fold increase at 30 μM) [2]: C (C = 5 to <10 fold increase); sGC Enzyme (fold increase at 30 μM with SNP) ([3]; with the addition of SNP): D (D = 10 to <30 fold increase)
Nc1nc(-c2cc(-c3ccon3)n(Cc3ccccc3F)n2)ncc1-c1ccsc1 [Compound I-121] |  |  |  |  |  |  |  |  | sGC Enzyme (fold increase at 30 μM) [2]: C (C = 5 to <10 fold increase); sGC Enzyme (fold increase at 30 μM with SNP) ([3]; with the addition of SNP): D (D = 10 to <30 fold increase)
Nc1nc(-c2cc(-c3ccon3)n(Cc3ccccc3F)n2)ncc1N1CCCC1 [Compound I-129] |  |  |  |  |  |  |  |  | sGC Enzyme (fold increase at 30 μM) [2]: B (B = 2 to <5 fold increase); sGC Enzyme (fold increase at 30 μM with SNP) ([3]; with the addition of SNP): D (D = 10 to <30 fold increase)
COc1ccccc1-c1cc(-c2ncccn2)nn1Cc1ccccc1F [Compound I-37] |  |  | C (C = 100 to <200) | A (A = no increase to <2 fold increase) | C (C = 100 to <200) | A (A = no increase to <2 fold increase) | A (A = no increase to <2 fold increase) | A (A = no increase to <2 fold increase) | 
Cc1ccccc1-c1cc(-c2ccccn2)nn1Cc1ccccc1F [Compound I-24] |  |  | C (C = 100 to <200) | A (A = no increase to <2 fold increase) | C (C = 100 to <200) | A (A = no increase to <2 fold increase) | A (A = no increase to <2 fold increase) | A (A = no increase to <2 fold increase) | 
CC(=O)Nc1cnc(-c2cc(-c3ncco3)n(Cc3ccccc3F)n2)nc1N [Compound I-151] |  |  |  |  |  |  |  |  | HEK WC Assay (fold increase at 30 μM in the absence of SNP) [4]: C (C = 2 to <5 fold increase); HEK WC Assay (fold increase at 30 μM in the presence of 10 μM SNP) [1]: D (D = 5 to <10 fold increase); EC50 [1]: < 20 µM; Emax [1, 5]: 60 to 80%; Emax [1, 6]: 60 to 80%; inhibition at 1 µM (Thoracic aortic rings): 80 to 100%; inhibition at 3 µM (Thoracic aortic rings): 100 to 120%; inhibition at 10 µM (Thoracic aortic rings): 100 to 120%; EC50 (Thoracic aortic rings): < 2 µM
N#CC1(C(=O)Nc2cnc(-c3cc(-c4ccon4)n(Cc4ccccc4F)n3)nc2N)CC1 [Compound I-238] |  |  |  |  |  |  |  |  | HEK WC Assay (fold increase at 30 μM in the absence of SNP) [4]: E (E = 10 to <20 fold increase); HEK WC Assay (fold increase at 30 μM in the presence of 10 μM SNP) [1]: E (E = 10 to <20 fold increase); EC50 [1]: < 20 µM; Emax ([1]; read-out: HEK WC Assay (% Emax at 1 μM with 10 uM SNP)): 80 to 100%; Emax [1, 5]: 100 to 120%; Emax [1, 6]: 100 to 120%; inhibition at 1 µM (Thoracic aortic rings): 80 to 100%; inhibition at 3 µM (Thoracic aortic rings): 100 to 120%; inhibition at 10 µM (Thoracic aortic rings): 100 to 120%; EC50 (Thoracic aortic rings): < 2 µM
